Laboratory results published in ChEMBL document CHEMBL1201862, “PubChem BioAssay data set” (2004).
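Where inhibition never reached the appropriate level, the endpoint shown equals the highest concentration tested. Otherwise, values were interpolated linearly from a five-concentration, 48-hour dose response in 96-well plates. At the GI50, growth is halved.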 Active and inactive are the calls of the source. No stated cut-off is given here; in the data, active = GI50 up to about 1.1 µM and inactive = higher.

How the values were obtained:
Experiment in all cases: NCI tumour cell line growth inhibition, 48 h
[1] = test system: 786-0
[2] = test system: A549
[3] = test system: ACHN
[4] = test system: CAKI-1
[5] = test system: HT-29
[6] = test system: IGROV-1
[7] = test system: KM12
[8] = test system: MOLT-4
[9] = test system: NCI-H522
[10] = test system: RPMI-8226
[11] = test system: SK-MEL-28
[12] = test system: SK-MEL-5
[13] = test system: SK-OV-3
[14] = test system: SNB-75
[15] = test system: UACC-257
[16] = test system: UO-31
[17] = test system: SK-MEL-2

Measured: GI50

Cc1cc(C)nc(NS(=O)(=O)c2ccc(Nc3c4ccc(Cl)cc4nc4c(C(=O)NCCN(C)C)cccc34)cc2)n1
inactive: [1] > 100 µM | [2] > 100 µM | [3] > 100 µM | [4] > 100 µM | [5] > 100 µM | [6] > 100 µM | [7] > 100 µM | [8] > 100 µM | [9] > 100 µM | [10] > 100 µM | [11] > 100 µM | [12] > 100 µM | [13] > 100 µM | [14] > 100 µM | [15] > 100 µM | [16] > 100 µM

C/N=C(\NC(=S)N(C)C)N(C)C
inactive: [1] > 100 µM | [2] > 100 µM | [3] > 100 µM | [4] > 100 µM | [5] > 100 µM | [6] > 100 µM | [7] > 100 µM | [8] > 100 µM | [9] > 100 µM | [10] > 100 µM | [11] > 100 µM | [17] > 100 µM | [12] > 100 µM | [13] > 100 µM | [14] > 100 µM | [15] > 100 µM | [16] > 100 µM

CC1(C)C(=O)/C=C\C(=O)C(C)(C)C2=CC=C(O2)C(C)(C)C(=O)/C=C\C(=O)C(C)(C)C2=CC=C1O2
inactive: [1] > 100 µM | [2] > 100 µM | [3] > 100 µM | [4] > 100 µM | [5] > 100 µM | [6] > 100 µM | [7] > 100 µM | [8] > 100 µM | [9] > 100 µM | [11] > 100 µM | [17] > 100 µM | [13] > 100 µM | [15] > 100 µM

CC(=O)OCc1cc(OC(C)=O)cnc1COC(C)=O
inactive: [1] > 100 µM | [2] > 100 µM | [3] > 100 µM | [4] > 100 µM | [5] > 100 µM | [6] > 100 µM | [7] > 100 µM | [8] > 100 µM | [9] > 100 µM | [11] > 100 µM | [17] > 100 µM | [12] > 100 µM | [13] > 100 µM | [14] > 100 µM | [15] > 100 µM | [16] > 100 µM

O=C(O)CSc1nnc(/C=C/c2ccccc2)[nH]1
inactive: [1] > 100 µM | [2] > 100 µM | [3] > 100 µM | [4] > 100 µM | [5] > 100 µM | [6] > 100 µM | [7] > 100 µM | [8] > 100 µM | [9] > 100 µM | [10] > 100 µM | [11] > 100 µM | [17] > 100 µM | [12] > 100 µM | [13] > 100 µM | [14] > 100 µM | [15] > 100 µM | [16] > 100 µM

C/C(CN1C(=O)c2ccccc2C1=O)=N\NS(=O)(=O)c1ccc2ccccc2c1
inactive: [1] > 100 µM | [2] > 100 µM | [3] > 100 µM | [4] > 100 µM | [5] > 100 µM | [6] > 100 µM | [7] > 100 µM | [8] > 100 µM | [9] 57.7 µM | [10] > 100 µM | [11] > 100 µM | [17] > 100 µM | [12] > 100 µM | [13] > 100 µM | [14] 32.1 µM | [15] > 100 µM | [16] > 100 µM

COc1ccc(/C=C/c2onc3c(=O)n(C)nc(-c4ccccc4)c23)cc1
inactive: [1] > 100 µM | [2] > 100 µM | [3] > 100 µM | [4] 35.9 µM | [5] 45 µM | [6] > 100 µM | [8] > 100 µM | [9] 77.6 µM | [10] > 100 µM | [11] > 100 µM | [12] > 100 µM | [13] > 100 µM | [16] > 100 µM

CCCCN(CCCC)CCCCNc1c(C)cnc2cc(Cl)ccc12
inactive: [1] 14 µM | [2] 30.9 µM | [3] 24.3 µM | [5] 14.9 µM | [7] 36.6 µM | [8] 25.9 µM | [9] 15.2 µM | [11] 17.2 µM | [17] 21.2 µM | [15] 14.6 µM | [16] 9.35 µM

CN1CCC(c2c(O)cc(O)c3c(=O)cc(-c4ccccc4Cl)oc23)C(O)C1 (configuration not stated)
active: [1] 0.0498 µM | [2] 0.0607 µM | [3] 0.048 µM | [4] 0.0628 µM | [5] 0.156 µM | [6] 0.0735 µM | [7] 0.0228 µM | [8] < 0.0108 µM | [9] 0.136 µM | [10] < 0.01 µM | [11] 0.0735 µM | [17] 0.0323 µM | [12] 0.0344 µM | [13] 0.571 µM | [14] 0.0219 µM | [15] 0.0627 µM | [16] 0.0303 µM

CN(C)CCNC(=O)c1ccc(C(=O)NCCN(C)C)c2nc3ccccc3cc12
inactive: [4] 1.48 µM | [6] 1.62 µM | [11] 1.74 µM | [17] 1.28 µM | [12] 1.49 µM | [14] 1.71 µM | [15] 1.62 µM | [16] 4.81 µM
active: [1] 0.692 µM | [2] 0.45 µM | [3] 0.637 µM | [5] 0.452 µM | [7] 0.792 µM | [8] 0.226 µM | [9] 0.47 µM | [13] 0.916 µM

O=C1/C(=C/c2ccc(C(=O)O)cc2)CNC/C1=C\c1ccc(C(=O)O)cc1
inactive: [1] > 100 µM | [2] > 100 µM | [3] > 100 µM | [5] > 100 µM | [6] > 100 µM | [7] > 100 µM | [8] > 100 µM | [10] > 100 µM | [11] > 100 µM | [12] > 100 µM | [13] > 100 µM | [14] > 100 µM | [15] > 100 µM | [16] > 100 µM

Cc1ccc(C2CC(c3ccco3)=NN2c2ccccc2)o1 (configuration not stated)
inactive: [1] > 100 µM | [2] > 100 µM | [3] > 100 µM | [5] > 100 µM | [6] > 100 µM | [7] > 100 µM | [8] > 100 µM | [9] > 100 µM | [10] > 100 µM | [11] > 100 µM | [17] > 100 µM | [12] > 100 µM | [14] > 100 µM | [16] > 100 µM

N#CCCN(CCC#N)c1ccc(/C=C2\N=C(CN3C(=O)c4ccccc4C3=O)OC2=O)cc1
inactive: [1] > 100 µM | [2] > 100 µM | [3] > 100 µM | [4] > 100 µM | [5] > 100 µM | [6] > 100 µM | [7] > 100 µM | [8] > 100 µM | [9] 89.7 µM | [10] 39.3 µM | [11] > 100 µM | [17] > 100 µM | [12] > 100 µM | [13] > 100 µM | [14] > 100 µM | [15] > 100 µM | [16] > 100 µM

Cn1c2ccccc2c(=O)c2c([N+](=O)[O-])ccc(NCCN)c21
inactive: [1] 6.93 µM | [2] 11.9 µM | [3] 6.3 µM | [4] 11.9 µM | [5] 4.47 µM | [6] 12.3 µM | [7] 6.43 µM | [8] 2.06 µM | [9] 6.92 µM | [11] 15.3 µM | [17] 15.3 µM | [12] 13.2 µM | [13] 15.7 µM | [14] 12.1 µM | [15] 13.6 µM | [16] 5.64 µM

COc1cc(Cl)cc(O)c(=O)c1OC
inactive: [1] 61.1 µM | [3] 37.2 µM | [5] 64.3 µM | [7] 72.8 µM | [8] 15.8 µM | [9] 21.9 µM | [10] 15.8 µM | [11] 92.7 µM | [17] 53.2 µM | [13] > 62.5 µM | [14] 59.2 µM | [15] 48.8 µM | [16] 42.4 µM

O=C1c2ccccc2C2(O)Nc3cc(O)ccc3C12O (configuration not stated)
inactive: [1] > 100 µM | [2] > 100 µM | [3] > 100 µM | [4] > 100 µM | [5] > 100 µM | [6] > 100 µM | [7] > 100 µM | [8] > 100 µM | [9] > 100 µM | [10] > 100 µM | [11] > 100 µM | [17] > 100 µM | [12] > 100 µM | [13] > 100 µM | [14] > 100 µM

NCCCCCS(=O)(=O)O
inactive: [1] > 100 µM | [2] > 100 µM | [3] > 100 µM | [5] > 100 µM | [6] > 100 µM | [7] > 100 µM | [8] > 100 µM | [9] > 100 µM | [11] > 100 µM | [17] > 100 µM | [12] > 100 µM | [13] > 100 µM | [14] > 100 µM | [15] > 100 µM | [16] > 100 µM

C1=CC=C2NCCCCCCC/N=C3/C=CC=CC=C3NCCCCCCC/N=C\2C=C1
inactive: [1] > 100 µM | [2] > 100 µM | [3] 85.7 µM | [4] > 100 µM | [5] 37.5 µM | [6] 10 µM | [7] > 100 µM | [8] 31 µM | [9] 52.5 µM | [10] 35.9 µM | [17] > 100 µM | [13] 10 µM | [14] 25.8 µM | [15] > 100 µM | [16] > 100 µM
